ChEMBL document CHEMBL1154313, “Synthesis, antiproliferative, and pharmacokinetic properties of 3- and 17-double-modified analogs of 2-methoxyestradiol” (Bioorg Med Chem Lett, 2009)
Calls of active or inactive are those of the source. The rule behind the calls is not given here.

Assays:
MDA-MB-231 [1] = assay: Antiproliferative activity against human MDA-MB-231 cells after 48 hrs by WST1 assay; format: functional, cell-based; conditions: MDA-MB-231, 48 h
HUVEC [2] = assay: Antiangiogenic activity against HUVEC assessed as growth inhibition after 48 hrs by WST1 assay; format: functional, cell-based; conditions: Homo sapiens
MCF7 = assay: Antiproliferative activity against human MCF7 cells after 48 hrs by WST1 assay; format: functional, cell-based
MDA-MB-231 [3] = assay: Ratio of 2ME2 IC50 to compound IC50 for human MDA-MB-231 cells; format: functional
HUVEC [4] = assay: Ratio of 2ME2 IC50 to compound IC50 for antiangiogenic activity against HUVEC; format: functional, Homo sapiens
[5] = Cmax in CD1 mouse at 45 mg/m'2 of body surface, po administered as single dose; format: ADME, organism-based; parameters: route oral; conditions: in vivo
[6] = Half life in CD1 mouse at 45 mg/m'2 of body surface, po administered as single dose; format: ADME, organism-based; conditions: in vivo
[7] = AUC (0 to infinity) in CD1 mouse at 45 mg/m'2 of body surface, po administered as single dose; format: ADME, organism-based; parameters: time infinity, route oral; conditions: plasma
HUVEC [8] = assay: Ratio of compound IC50 to 2ME2 IC50 for antiangiogenic activity against HUVEC; format: functional, Homo sapiens
MDA-MB-231 [9] = assay: Ratio of compound IC50 to 2ME2 IC50 for human MDA-MB-231 cells; format: functional
Mus musculus [10] = assay: Ratio of compound Cmax to 2ME2 Cmax in CD1 mouse at 45 mg/m'2 of body surface, po administered as single dose; format: ADME, organism-based; conditions: in vivo
Mus musculus [11] = assay: Ratio of compound AUC (0 to infinity) to 2ME2 AUC (0 to infinity) in CD1 mouse at 45 mg/m'2 of body surface, po administered as single dose; format: ADME, organism-based; conditions: in vivo

IC50 (MDA-MB-231 [1]) [nM] | SMILES | IC50 (HUVEC [2]) [nM] | Activity (MCF7) | Ratio IC50 (MDA-MB-231 [3]) | Ratio IC50 (HUVEC [4]) | Cmax [5] [nM] | half-life [6] [h] | AUC(0-inf) [7] [µM·h] | Ratio IC50 (HUVEC [8]) | Ratio IC50 (MDA-MB-231 [9]) | Ratio (Mus musculus [10]) | Ratio (Mus musculus [11])
25000 | COC(=O)Oc1cc2c(cc1OC)[C@H]1CC[C@]3(C)C(=O)CC[C@H]3[C@@H]1CC2 | 32900 | Active | – | – | – | – | – | – | – | – | –
9250 | COc1cc2c(cc1NC(C)=O)CC[C@@H]1[C@@H]2CC[C@]2(C)CCC[C@@H]12 | 1680 | Active | – | – | – | – | – | – | – | – | –
560 | C/C=C1\CC[C@H]2[C@@H]3CCc4cc(NC=O)c(OC)cc4[C@H]3CC[C@]12C | 580 | Active | 2 | 3 | – | – | – | – | – | – | –
5600 | COC(=O)Nc1cc2c(cc1OC)[C@H]1CC[C@]3(C)C(=O)CC[C@H]3[C@@H]1CC2 | 8220 | Active | – | – | – | – | – | – | – | – | –
53000 | CCNC(=O)c1cc2c(cc1OC)[C@H]1CC[C@]3(C)CCC[C@H]3[C@@H]1CC2 | 38000 | Active | – | – | – | – | – | – | – | – | –
8290 | COc1cc2c(cc1NC=O)CC[C@@H]1[C@@H]2CC[C@]2(C)CCC[C@@H]12 | 5800 | Active | – | – | – | – | – | 8 | 10 | – | –
200 | COc1cc2c(cc1NC#N)CC[C@@H]1[C@@H]2CC[C@]2(C)C(=O)CC[C@@H]12 | 250 | Active | – | – | – | – | – | – | – | – | –
300 | C=C1CC[C@H]2[C@@H]3CCc4cc(NC=O)c(OC)cc4[C@H]3CC[C@]12C | 220 | Active | 2 | 3 | – | – | – | – | – | – | –
1940 | C/C=C1\CC[C@H]2[C@@H]3CCc4cc(N)c(OC)cc4[C@H]3CC[C@]12C | 720 | Active | – | – | – | – | – | – | – | – | –
710 | COc1cc2c(cc1NC(N)=O)CC[C@@H]1[C@@H]2CC[C@]2(C)C(=O)CC[C@@H]12 | 610 | Active | – | – | – | – | – | – | – | – | –
610 | COc1cc2c(cc1NC=O)CC[C@@H]1[C@@H]2CC[C@]2(C)[C@@H](C)CC[C@@H]12 | 590 | Active | 2 | 3 | – | – | – | – | – | – | –
1220 | COc1cc2c(cc1NC=O)CC[C@@H]1[C@@H]2CC[C@]2(C)C(=O)CC[C@@H]12 | 530 | Active | – | 3 | – | – | – | – | 10 | – | –
1860 | COc1cc2c(cc1C(N)=O)CC[C@@H]1[C@@H]2CC[C@]2(C)CCC[C@@H]12 | 1190 | Active | – | – | 504 | 1.1 | 2.53 | 8 | 3 | – | –

SMILES | IC50 (MDA-MB-231 [1]) [nM] | IC50 (HUVEC [2]) [nM] | Activity (MCF7) | Ratio IC50 (MDA-MB-231 [3]) | Ratio IC50 (HUVEC [4]) | Cmax [5] [nM] | half-life [6] [h] | AUC(0-inf) [7] [µM·h] | Ratio IC50 (HUVEC [8]) | Ratio IC50 (MDA-MB-231 [9]) | Ratio (Mus musculus [10]) | Ratio (Mus musculus [11])
C=C1CC[C@H]2[C@@H]3CCc4cc(N)c(OC)cc4[C@H]3CC[C@]12C | 2110 | 1000 | Active | – | – | – | – | – | – | – | – | –
C=C1CC[C@H]2[C@@H]3CCc4cc(C(N)=O)c(OC)cc4[C@H]3CC[C@]12C | 120 | 250 | Active | 6 | 5 | 334 | 4.8 | 3.2 | – | – | – | –
COc1cc2c(cc1N)CC[C@@H]1[C@@H]2CC[C@]2(C)C(=O)CC[C@@H]12 | 46900 | 23400 | Active | – | – | – | – | – | – | – | – | –
COc1cc2c(cc1C(N)=O)CC[C@@H]1[C@@H]2CC[C@]2(C)C(=O)CC[C@@H]12 | 2200 | 5460 | Active | – | – | – | – | – | 8 | – | – | –
COc1cc2c(cc1N)CC[C@@H]1[C@@H]2CC[C@]2(C)[C@@H](C)CC[C@@H]12 | 7310 | 2650 | Active | – | – | – | – | – | – | – | – | –
COc1cc2c(cc1O)CC[C@@H]1[C@@H]2CC[C@]2(C)[C@@H](O)CC[C@@H]12 [2-METHOXYESTRADIOL] | 790 | 680 | Active | – | – | 294 | 0.3 | 0.142 | – | – | – | –
COc1cc2c(cc1C(N)=O)CC[C@@H]1[C@@H]2CC[C@]2(C)C=CC[C@@H]12 | 200 | 130 | Active | 6 | 5 | 1430 | 2.1 | 3.36 | – | – | 5 | 23
C=Cc1cc2c(cc1OC)[C@H]1CC[C@]3(C)CCC[C@H]3[C@@H]1CC2 | 1860 | 580 | Active | – | – | – | – | – | – | – | – | –
COc1cc2c(cc1N)CC[C@@H]1[C@@H]2CC[C@]2(C)CCC[C@@H]12 | 7380 | 4720 | Active | – | – | – | – | – | – | – | – | –
